Assay results published in ChEMBL document CHEMBL4706508, “Discovery of first-in-class multi-target adenosine A receptor antagonists-carbonic anhydrase IX and XII inhibitors. 8-Amino-6-aryl-2-phenyl-1,2,4-triazolo [4,3-a]pyrazin-3-one derivatives as new potential antitumor agents” (Eur J Med Chem, 2020).

Columns and labels:
Adenosine receptor A2b = biological target: T1, Adenosine receptor A2b (Homo sapiens, UniProt P29275); assay: Antagonist activity at human A2B receptor expressed in CHO cell membrane assessed as reduction in NECA-[…] level by GloSensor CAMP assay; assay type: cell membranes
T1 sequence (P29275 whole entry): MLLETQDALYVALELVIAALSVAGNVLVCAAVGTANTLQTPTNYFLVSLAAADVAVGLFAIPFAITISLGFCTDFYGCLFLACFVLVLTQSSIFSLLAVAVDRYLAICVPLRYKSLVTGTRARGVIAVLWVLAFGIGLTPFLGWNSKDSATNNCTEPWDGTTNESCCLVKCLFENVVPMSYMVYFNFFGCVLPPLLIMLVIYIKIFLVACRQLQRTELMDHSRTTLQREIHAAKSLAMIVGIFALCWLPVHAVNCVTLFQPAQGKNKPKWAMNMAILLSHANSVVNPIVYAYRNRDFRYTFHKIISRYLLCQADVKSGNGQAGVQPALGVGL

Carbonic anhydrase 2 = Carbonic anhydrase 2 (Homo sapiens, UniProt P00918); assay: Inhibition of human CA2 incubated for 15 mins by stopped- flow CO2 hydrase assay method
Carbonic anhydrase 12 = Carbonic anhydrase 12 (Homo sapiens, UniProt O43570); assay: Inhibition of human CA12 incubated for 15 mins by stopped- flow CO2 hydrase assay method
Carbonic anhydrase 1 = Carbonic anhydrase 1 (Homo sapiens, UniProt P00915); assay: Inhibition of human CA1 incubated for 15 mins by stopped- flow CO2 hydrase assay method
Carbonic anhydrase 9 = Carbonic anhydrase 9 (Homo sapiens, UniProt Q16790); assay: Inhibition of human CA9 incubated for 15 mins by stopped- flow CO2 hydrase assay method
Adenosine receptor A3 = biological target: T2, Adenosine receptor A3 (Homo sapiens, UniProt P0DMS8); assay: Displacement of [3H]-HEMADO from human A3 receptor stably expressed in CHO cell membranes by radioligand competitive binding assay; set-up: species or system Cell membrane
T2 sequence (P0DMS8 whole entry): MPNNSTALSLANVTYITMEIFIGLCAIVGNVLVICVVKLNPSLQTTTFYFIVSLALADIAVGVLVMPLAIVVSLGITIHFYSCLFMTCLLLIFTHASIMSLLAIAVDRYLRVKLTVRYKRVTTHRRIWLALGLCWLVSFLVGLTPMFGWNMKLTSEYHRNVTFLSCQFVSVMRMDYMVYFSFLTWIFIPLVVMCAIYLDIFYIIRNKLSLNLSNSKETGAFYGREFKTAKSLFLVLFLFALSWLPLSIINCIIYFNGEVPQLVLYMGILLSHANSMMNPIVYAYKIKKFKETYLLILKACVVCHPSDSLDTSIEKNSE

Adenosine receptor A1 = biological target: T3, Adenosine receptor A1 (Homo sapiens, UniProt P30542); assay: Displacement of [3H]-CCPA from human A1 receptor stably expressed in CHO cell membranes by radioligand competitive binding assay; set-up: species or system Cell membrane
T3 sequence (P30542 whole entry): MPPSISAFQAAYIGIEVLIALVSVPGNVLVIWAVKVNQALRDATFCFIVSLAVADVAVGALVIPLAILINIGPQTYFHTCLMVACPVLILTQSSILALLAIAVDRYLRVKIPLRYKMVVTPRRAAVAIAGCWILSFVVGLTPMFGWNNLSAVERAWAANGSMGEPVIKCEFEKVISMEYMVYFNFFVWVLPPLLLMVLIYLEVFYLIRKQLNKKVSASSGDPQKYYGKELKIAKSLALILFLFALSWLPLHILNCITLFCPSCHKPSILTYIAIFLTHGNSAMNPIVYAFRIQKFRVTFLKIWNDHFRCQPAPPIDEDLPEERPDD

Adenosine receptor A2a = Adenosine receptor A2a (Homo sapiens, UniProt P29274); assay: Displacement of [3H]-NECA from human A2A receptor stably expressed in CHO cell membranes by radioligand competitive binding assay; set-up: species or system Cell membrane
Sequence of Adenosine receptor A2a (P29274 whole entry): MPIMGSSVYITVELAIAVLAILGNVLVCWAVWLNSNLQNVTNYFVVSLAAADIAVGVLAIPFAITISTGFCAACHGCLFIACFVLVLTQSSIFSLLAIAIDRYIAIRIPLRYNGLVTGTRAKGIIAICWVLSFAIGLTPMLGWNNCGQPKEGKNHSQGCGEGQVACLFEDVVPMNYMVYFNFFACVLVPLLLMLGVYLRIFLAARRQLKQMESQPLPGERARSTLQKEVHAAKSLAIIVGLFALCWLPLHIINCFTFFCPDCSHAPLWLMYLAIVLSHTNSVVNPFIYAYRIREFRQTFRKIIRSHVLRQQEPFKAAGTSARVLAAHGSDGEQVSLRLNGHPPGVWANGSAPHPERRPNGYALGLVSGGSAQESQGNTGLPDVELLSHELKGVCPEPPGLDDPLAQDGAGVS

Sequence of Carbonic anhydrase 1 (P00915 whole entry): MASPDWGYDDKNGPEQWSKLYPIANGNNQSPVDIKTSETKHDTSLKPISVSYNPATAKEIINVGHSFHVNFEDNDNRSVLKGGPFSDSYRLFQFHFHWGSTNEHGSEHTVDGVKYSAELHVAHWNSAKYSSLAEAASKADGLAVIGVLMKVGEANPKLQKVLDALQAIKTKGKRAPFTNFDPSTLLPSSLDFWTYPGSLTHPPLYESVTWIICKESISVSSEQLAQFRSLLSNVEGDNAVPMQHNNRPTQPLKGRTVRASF
Sequence of Carbonic anhydrase 12 (O43570 whole entry): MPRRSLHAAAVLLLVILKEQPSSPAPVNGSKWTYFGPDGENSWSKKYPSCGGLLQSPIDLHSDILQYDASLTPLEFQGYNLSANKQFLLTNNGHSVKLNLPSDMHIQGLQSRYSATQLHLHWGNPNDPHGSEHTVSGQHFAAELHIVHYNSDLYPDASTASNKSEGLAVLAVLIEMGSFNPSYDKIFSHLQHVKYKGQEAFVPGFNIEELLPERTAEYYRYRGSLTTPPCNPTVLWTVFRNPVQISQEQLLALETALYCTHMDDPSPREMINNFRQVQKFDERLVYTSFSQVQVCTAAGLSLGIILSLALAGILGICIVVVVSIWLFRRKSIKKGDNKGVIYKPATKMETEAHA

Compound	IC50 (Adenosine receptor A2b) [µM]	Ki (Carbonic anhydrase 2) [µM]	Ki (Carbonic anhydrase 12) [µM]	Ki (Carbonic anhydrase 1) [µM]	Ki (Carbonic anhydrase 9) [µM]	Ki (Adenosine receptor A3) [µM]	Ki (Adenosine receptor A1) [µM]	Ki (Adenosine receptor A2a) [µM]
Nc1nc(-c2cccc(O)c2)cn2c(=O)n(-c3ccccc3)nc12	> 30	93	> 100	> 100	> 100	–	–	–
Nc1nc(-c2ccc(O)cc2)cn2c(=O)n(-c3ccccc3)nc12	> 30	> 100	> 100	> 100	> 100	–	–	–
Nc1nc(-c2ccc(NC(=O)c3ccc(O)c(O)c3)cc2)cn2c(=O)n(-c3ccccc3)nc12	> 30	31.7	> 100	> 100	44.3	1.25	0.546	0.009
Nc1nc(-c2ccc(NC(=O)CCNC(=O)c3cccc(S(N)(=O)=O)c3)cc2)cn2c(=O)n(-c3ccccc3)nc12	> 30	0.341	0.83	7.28	6.92	> 30	0.418	0.0092
Nc1nc(-c2ccc(NC(=O)c3ccc(C(=O)NO)cc3)cc2)cn2c(=O)n(-c3ccccc3)nc12	> 30	63	> 100	> 100	> 100	0.546	0.395	0.036
CN(C)c1nc(-c2ccc(S(N)(=O)=O)cc2)cn2c(=O)n(-c3ccccc3)nc12	> 30	0.464	0.358	2.09	6.73	19.5	0.435	3.89
Nc1nc(-c2ccc(NC(=O)c3ccc(C(=O)O)cc3)cc2)cn2c(=O)n(-c3ccccc3)nc12	> 30	> 100	> 100	> 100	> 100	> 30	2.37	0.0812
Nc1nc(-c2ccc(NC(=O)c3cccc(S(N)(=O)=O)c3)cc2)cn2c(=O)n(-c3ccccc3)nc12	> 30	0.367	0.303	2.29	0.81	> 30	1.21	0.0135
COc1ccc(C(=O)Nc2ccc(-c3cn4c(=O)n(-c5ccccc5)nc4c(N)n3)cc2)cc1	> 30	> 100	> 100	> 100	> 100	0.279	0.418	0.0007
Nc1nc(-c2ccccc2O)cn2c(=O)n(-c3ccccc3)nc12	> 30	19	> 100	> 100	> 100	–	–	–
Nc1nc(-c2ccc(NC(=O)CCC(=O)O)cc2)cn2c(=O)n(-c3ccccc3)nc12	> 30	> 100	> 100	> 100	> 100	6.96	2.3	0.573
CCOC(=O)c1ccc(C(=O)Nc2ccc(-c3cn4c(=O)n(-c5ccccc5)nc4c(N)n3)cc2)cc1	> 30	> 100	> 100	> 100	> 100	> 30	7.48	1.36
CCOC(=O)CNc1ccc(-c2cn3c(=O)n(-c4ccccc4)nc3c(N)n2)cc1	> 30	> 100	> 100	> 100	> 100	> 30	0.771	6.3
COc1ccc(C(=O)Nc2ccc(-c3cn4c(=O)n(-c5ccccc5)nc4c(N)n3)cc2)cc1OC	> 30	> 100	> 100	> 100	> 100	> 30	0.0988	0.0206
Nc1nc(-c2ccc(NC(=O)c3ccc(O)cc3)cc2)cn2c(=O)n(-c3ccccc3)nc12	> 30	47.3	4.4	> 100	> 100	1.07	0.194	0.0412

Second part, the molecule after the results:

IC50 (Adenosine receptor A2b) [µM]	Ki (Carbonic anhydrase 2) [µM]	Ki (Carbonic anhydrase 12) [µM]	Ki (Carbonic anhydrase 1) [µM]	Ki (Carbonic anhydrase 9) [µM]	Ki (Adenosine receptor A3) [µM]	Ki (Adenosine receptor A1) [µM]	Ki (Adenosine receptor A2a) [µM]	Compound
> 30	0.703	0.602	8.02	8.92	14.8	0.205	0.857	Nc1nc(-c2ccc(S(N)(=O)=O)cc2)cn2c(=O)n(-c3ccccc3)nc12
> 30	0.934	0.795	0.973	9.46	7.01	0.283	0.0879	Nc1nc(-c2ccc(OCCNCCc3ccc(S(N)(=O)=O)cc3)cc2)cn2c(=O)n(-c3ccccc3)nc12
> 30	0.0086	0.027	0.0515	0.005	> 30	1.07	–	Nc1nc(-c2ccc(NC(=O)CCNC(=O)c3ccc(S(N)(=O)=O)cc3)cc2)cn2c(=O)n(-c3ccccc3)nc12
> 30	0.897	0.625	0.57	5.97	> 30	0.0877	0.0279	Nc1nc(-c2ccc(NCc3ccc(S(N)(=O)=O)cc3)cc2)cn2c(=O)n(-c3ccccc3)nc12
> 30	0.246	0.0257	0.589	9.45	6.76	0.131	0.026	Nc1nc(-c2ccc(NCC(=O)c3ccc(S(N)(=O)=O)cc3)cc2)cn2c(=O)n(-c3ccccc3)nc12
> 30	0.183	0.528	0.934	5.95	6.65	0.42	0.0068	Nc1nc(-c2ccc(OCCNC(=O)c3ccc(S(N)(=O)=O)cc3)cc2)cn2c(=O)n(-c3ccccc3)nc12
> 30	0.526	0.000263	8.71	0.109	5.83	1.03	0.0106	Nc1nc(-c2ccc(NC(=O)CCNCCc3ccc(S(N)(=O)=O)cc3)cc2)cn2c(=O)n(-c3ccccc3)nc12
> 30	0.046	0.006	8.35	0.466	> 30	4.19	–	Nc1nc(-c2ccc(NC(=O)c3ccc(S(N)(=O)=O)cc3)cc2)cn2c(=O)n(-c3ccccc3)nc12
> 30	6.76	0.0415	9	0.319	> 30	0.839	0.0963	Nc1nc(-c2ccc(NC(=O)CCNCc3ccc(S(N)(=O)=O)cc3)cc2)cn2c(=O)n(-c3ccccc3)nc12
